In patent publication US9334246B2, “Substituted triazines for malaria treatment and chemoprophylaxis” (The United States of America, as represented by the …, priority 2013, dated 2016):

What was measured:
Format in all cases: cell-based, Plasmodium falciparum
Details in all cases: SYBR Green Assay
P. falciparum C235 = experiment: Malaria SYBR Green Fluorescence Assay, C235 strain
P. falciparum W2 = experiment: Malaria SYBR Green Fluorescence Assay, W2 strain
P. falciparum D6 = experiment: Malaria SYBR Green Fluorescence Assay, D6 strain

SMILES	C235 (P. falciparum C235) [ng/mL]	W2 (P. falciparum W2) [ng/mL]	D6 (P. falciparum D6) [ng/mL]
CSc1ccc(-c2nc(NCCCN3CCCC3)nc(C(Cl)(Cl)Cl)n2)cc1 [Cmpd 44]	638	204	462
CN1CCN(c2nc(-c3ccc(S(C)(=O)=O)cc3)nc(C(Cl)(Cl)Cl)n2)CC1 [Cmpd 54]	632	356	432
CN1CCC(Nc2nc(-c3ccc(C(Cl)(Cl)Cl)cc3)nc(C(Cl)(Cl)Cl)n2)CC1 [Cmpd 61]	556	376	570
COc1ccccc1Nc1nc(NCCC2CCCN2C)nc(C(Cl)(Cl)Cl)n1 (stereo not shown) [Cmpd 63]	540	794	603
CN1CCCC1CCNc1nc(-c2ccc(S(C)(=O)=O)cc2)nc(C(Cl)(Cl)Cl)n1 (stereo not shown) [Cmpd 75]	–	–	635
CCN1CCCC(Nc2nc(Cc3ccc(OC)cc3)nc(C(Cl)(Cl)Cl)n2)C1 (stereo not shown) [Cmpd 81]	992	601	633
COc1cccc(Cc2nc(NCCN3CCCC3)nc(C(Cl)(Cl)Cl)n2)c1 [Cmpd 82]	–	805	–
CCN1CCCC(Nc2nc(Cc3ccc(OC)cc3)nc(C(Cl)(Cl)Cl)n2)C1 (stereo not shown) [Cmpd 86]	991	600	623
CCN1CCCC(Nc2nc(-c3ccc(SC)cc3)nc(C(Cl)(Cl)Cl)n2)C1 (stereo not shown) [Cmpd 88]	77	69	79
CC(=O)Nc1cccc(Nc2nc(NCCC3CCCN3C)nc(C(Cl)(Cl)Cl)n2)c1 (stereo not shown) [Cmpd 92]	164	106	122
CCN1CCCC(Nc2nc(Cc3ccccc3OC)nc(C(Cl)(Cl)Cl)n2)C1 (stereo not shown) [Cmpd 94]	456	173	396
CS(=O)(=O)c1ccc(-c2nc(NCCNCCO)nc(C(Cl)(Cl)Cl)n2)cc1 [Cmpd 98]	554	366	448
COc1ccc(-c2nc(N3CCCNCC3)nc(C(Cl)(Cl)Cl)n2)cc1 [Cmpd 101]	158	117	182
COc1ccccc1-c1nc(NCCCN2CCCC2)nc(C(Cl)(Cl)Cl)n1 [Cmpd 105]	93	73	145
CCN(CC)CCNc1nc(-c2ccccc2OC)nc(C(Cl)(Cl)Cl)n1 [Cmpd 107]	158	95	212
COc1ccc(-c2nc(N3CCCN(C)CC3)nc(C(Cl)(Cl)Cl)n2)cc1 [Cmpd 111]	232	103	191
Cc1ccc(-c2nc(N3CCCN(C)CC3)nc(C(Cl)(Cl)Cl)n2)cc1 [Cmpd 112]	209	107	168
CC(C)(C)c1ccc(-c2nc(N3CCCNCC3)nc(C(Cl)(Cl)Cl)n2)cc1 [Cmpd 115]	360	242	357
CCN(CC)CCNc1nc(-c2ccccc2C)nc(C(Cl)(Cl)Cl)n1 [Cmpd 123]	67	31	57
CN(Cc1ccccc1-c1cccnc1)c1nc(-c2ccc(S(C)(=O)=O)cc2)nc(C(Cl)(Cl)Cl)n1 [Cmpd 129]	233	102	170
Cc1ccc(-c2nc(NCc3ccncc3)nc(C(Cl)(Cl)Cl)n2)cc1 [Cmpd 134]	–	453	521
COc1ccccc1-c1nc(NCc2ccncc2)nc(C(Cl)(Cl)Cl)n1 [Cmpd 135]	–	461	765
COc1ccccc1-c1nc(NCc2cccnc2)nc(C(Cl)(Cl)Cl)n1 [Cmpd 154]	–	477	–
COc1ccc(-c2nc(NCc3cccnc3)nc(C(Cl)(Cl)Cl)n2)cc1 [Cmpd 156]	–	560	–
CC(C)(C)c1ccc(-c2nc(NCc3ccccn3)nc(C(Cl)(Cl)Cl)n2)cc1 [Cmpd 170]	–	313	–
CS(=O)(=O)c1ccc(-c2nc(NCCc3ccccn3)nc(C(Cl)(Cl)Cl)n2)cc1 [Cmpd 180]	–	478	819
COc1ccccc1-c1nc(NCCc2cccnc2)nc(C(Cl)(Cl)Cl)n1 [Cmpd 182]	–	256	659
CN1CCCC1CCNc1nc(-c2ccc(-c3ccccc3)cc2)nc(C(Cl)(Cl)Cl)n1 (stereo not shown) [Cmpd 201]	–	845	–
ClC(Cl)(Cl)c1nc(NCc2cccnc2)nc(-c2ccc(-c3ccccc3)cc2)n1 [Cmpd 249]	755	545	–
